This note sets out measurements from patent US6369225B1, “Compounds having activity as inhibitors of cytochrome P450RAI” (Allergan Sales, Inc., priority 2000, dated 2002).

Molecules are shown by their SMILES. Bounds are passed on as bounds.

Assay [1] has as its target T1, RARβ (Homo sapiens, UniProt P10826).
T1 sequence (P10826 1-455): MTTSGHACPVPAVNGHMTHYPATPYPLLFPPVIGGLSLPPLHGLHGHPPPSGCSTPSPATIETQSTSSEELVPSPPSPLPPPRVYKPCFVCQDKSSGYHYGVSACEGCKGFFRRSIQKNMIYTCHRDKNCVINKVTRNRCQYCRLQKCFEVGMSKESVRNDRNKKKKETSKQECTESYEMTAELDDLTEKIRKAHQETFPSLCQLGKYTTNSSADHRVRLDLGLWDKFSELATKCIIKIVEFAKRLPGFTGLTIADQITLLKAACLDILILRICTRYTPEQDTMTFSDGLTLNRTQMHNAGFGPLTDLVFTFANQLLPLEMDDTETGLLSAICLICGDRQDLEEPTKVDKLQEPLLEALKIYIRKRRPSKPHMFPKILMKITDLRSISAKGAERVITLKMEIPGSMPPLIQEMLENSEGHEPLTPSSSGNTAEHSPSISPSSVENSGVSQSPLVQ
Nature of the assay: ligand binding assay, RARβ. The settings on record: Kd line of EC50/(EFFICACY)/Kd, read-out: RAR Kd β.

In assay [2] the target is T2, RARβ (Homo sapiens, UniProt P10826).
T2 sequence (P10826 183-417 limits assumed): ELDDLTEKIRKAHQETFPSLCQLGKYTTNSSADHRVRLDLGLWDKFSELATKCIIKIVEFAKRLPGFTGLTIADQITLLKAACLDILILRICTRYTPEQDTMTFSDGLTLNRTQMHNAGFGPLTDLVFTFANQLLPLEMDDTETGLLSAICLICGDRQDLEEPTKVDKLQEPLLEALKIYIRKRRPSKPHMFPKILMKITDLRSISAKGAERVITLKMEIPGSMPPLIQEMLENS
Nature of the assay: chimeric receptor transactivation assay, RARβ. It counts as cell-based. The settings on record: EC50 line of EC50/(EFFICACY)/Kd, read-out: RAR EC50 β. An excerpt: Assays described below measure the ability of a compound to bind to, and/or activate various retinoid receptor subtypes. When in these assays a compound binds to a given receptor subtype and activates the transcription of a reporter gene through that subtype, then the compound is considered an agonist of that receptor subtype. […] In the below described assays the ability of the compounds to bind to RARα, RARβ, RARγ, RXRα, RXRβ and RXRγ receptors, and the ability or inability of the compounds to activate transcription of a reporter gene through these receptor subtypes can be tested.
As far as specific assays are concerned, a chimeric receptor transactivation assay which tests for agonist-like activity in the RARα, RARβ, AND RARγ, receptor subtypes, and which is based on work published by Feigner P. L. and Holm M. (1989) Focus, 112 is described in detail in U.S. Pat. No. 5,455,265. The specification of U.S. Pat. No. 5,455,265 is hereby expressly incorporated by reference. The numeric results obtained with several preferred compounds of this invention in this assay are shown below in Table 1.

Another assay deals with T3, P450RAI-1 (Homo sapiens, UniProt O43174).
T3 construct: expressed in transfected cells; host or cells: HeLa cells, stably transfected, hygromycin selection
T3 sequence (O43174 1-497): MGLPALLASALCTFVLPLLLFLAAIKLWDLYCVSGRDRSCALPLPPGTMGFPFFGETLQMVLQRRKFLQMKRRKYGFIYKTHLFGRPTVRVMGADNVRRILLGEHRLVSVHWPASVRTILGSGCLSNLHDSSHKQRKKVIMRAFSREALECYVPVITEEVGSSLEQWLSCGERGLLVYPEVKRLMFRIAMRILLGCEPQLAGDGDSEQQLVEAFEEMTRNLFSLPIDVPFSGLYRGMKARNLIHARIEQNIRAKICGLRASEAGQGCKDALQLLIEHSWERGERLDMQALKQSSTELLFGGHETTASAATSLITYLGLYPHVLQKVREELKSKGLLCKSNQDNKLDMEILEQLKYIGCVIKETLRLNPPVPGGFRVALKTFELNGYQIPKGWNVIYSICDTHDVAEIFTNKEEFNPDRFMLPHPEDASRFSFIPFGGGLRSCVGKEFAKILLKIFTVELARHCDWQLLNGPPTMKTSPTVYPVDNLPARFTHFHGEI
Nature of the assay: P450RAI-1 cell-based inhibitor assay. The settings on record: P450RAI-1 stably transfected HeLa cells, [3H]-RA metabolism, 3 hours at 37° C.; read-out: P450RAI INHIBITION DATA INTACT HELA IC50. The method, boiled down: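 HeLa cells stably expressing the enzyme (5×10^5/well) incubated 3 h at 37 °C with 0.05 μCi [3H]-all-trans-RA and compound at 10, 1 or 0.1 μM in triplicate. Water-soluble radioactive metabolites counted by scintillation; IC50 derived manually from log-transformed data.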

Consider `Cc1cc(C#Cc2ccc(C(=O)O)cc2)ccc1C1(OCc2ccccc2)CC1` [Compound 81, 4-[4-(1-Benzyloxycyclopropyl)-3-methyl-phenylethynyl]-benzoic Acid], for which the Kd at RARβ [1] turned out to be 846 nM. Moreover, the EC50 on RARβ [2] was determined as 490 nM. The IC50 at P450RAI-1 was greater than 10 µM.
As for `CC(C)OC1(c2ccc(C#Cc3ccc(C(=O)O)cc3)cc2)CC1` [Compound 73, 4-[4-(1-Isopropoxycyclopropyl)-phenylethynyl]-benzoic Acid], the Kd at RARβ [1] was 26 nM. On RARβ [2], the EC50 worked out at 22.5 nM. At P450RAI-1, the IC50 was greater than 10 µM.
Turning to `CC1(C)CCC(=O)c2ccc(C#Cc3ccc(CC(=O)O)cc3)cc21` [Compound 5, 4-[(8,8-Dimethyl-5-oxo-5,6,7,8-tetrahydro-naphthalene-2-yl-ethynyl)-phenyl]-acetic Acid], at RARβ [1], the Kd came out at 2810 nM. Moreover, on RARβ [2], the concentration for a half-maximal effect (EC50) is 11 nM. Further, the IC50 on P450RAI-1 is 0.55 µM.
Take `CC1(C)CC2(CC2)Oc2ccc(C#Cc3ccc(C(=O)O)cc3)cc21` [Compound 40, Benzoic Acid, 4-[(3,4-dihydro-4,4-dimethylspiro[2H-1-benzopyran-2,1′-cyclopropane]-6-yl)ethynyl]-]: at RARβ [1], the Kd came to 1.3 nM. The EC50 on RARβ [2] turned out to be 1.2 nM. At P450RAI-1, the IC50 was 1.7 µM.
`Cc1cc(C#Cc2ccc(C(=O)O)cc2)ccc1C1(OC(C)C)CC1` [Compound 85, 4-[4-(1-Isopropoxycyclopropyl)-3-methyl-phenylethynyl]-benzoic Acid]: on RARβ [1], the Kd turned out to be 240 nM. Further, at RARβ [2], the EC50 amounted to 3.5 nM. For the same compound, at P450RAI-1, the IC50 was greater than 10 µM.
With `CN(C1CC1)C1CCC(C)(C)c2cc(C#Cc3ccc(CC(=O)O)cc3)ccc21` (stereo not drawn) [Compound 8, 4-[(5-(Cyclopropyl-methyl-amino)-8,8-dimethyl-5,6,7,8-tetrahydro-naphthalene-2-yl-ethynyl)-phenyl]-acetic Acid], the dissociation constant Kd on RARβ [1] amounted to 3780 nM. Further, the EC50 on RARβ [2] is 363 nM. The IC50 at P450RAI-1 was found to be 0.4 µM.
With `CCCN(CCC)C1(c2ccc(C#Cc3ccc(C(=O)O)cc3)cc2)CC1` [Compound 110, 4-[4-(1-Dipropylamino-cyclopropyl)-phenylethynyl]-benzoic Acid], the Kd on RARβ [1] came out at 409 nM. In addition, on RARβ [2], the EC50 worked out at 74 nM. In addition, the concentration for half-maximal inhibition (IC50) on P450RAI-1 is greater than 10 µM.
Regarding `CCc1cc(C#Cc2ccc(C(=O)O)cc2)ccc1C1(OCc2ccccc2)CC1` [Compound 93, 4-[4-(1-Benzyloxycyclopropyl)-3-ethyl-phenylethynyl]-benzoic Acid], at RARβ [1], the Kd turned out to be 554 nM. In addition, the EC50 on RARβ [2] was 20 nM. The concentration for half-maximal inhibition (IC50) on P450RAI-1 is greater than 10 µM.
Turning to `COC1(c2ccc(C#Cc3ccc(C(=O)O)cc3)cc2)CC1` [Compound 69, 4-[4-(1-Methoxycyclopropyl)-phenylethynyl]-benzoic Acid], the Kd on RARβ [1] was 133 nM. Also, the half-maximal effective concentration (EC50) at RARβ [2] is 12 nM. In addition, the IC50 on P450RAI-1 is greater than 10 µM.
In the case of `Cc1cc(C#Cc2ccc(C(=O)O)cc2)ccc1C1(OCC(C)(C)C)CC1` [Compound 89, 4-[4-[1-(2,2-Dimethylpropyloxy)-cyclopropyl]-3-methyl-phenylethynyl]-benzoic Acid], the Kd at RARβ [1] amounted to 980 nM. For the same compound, the EC50 at RARβ [2] was found to be 26 nM. Also, the IC50 on P450RAI-1 was greater than 10 µM.
The corresponding values for `CN(C1CC1)C1CCC(C)(C)c2cc(C#Cc3ccc(C(=O)O)cc3)ccc21` (stereo not drawn) [Compound 3, 4-[(5-Cyclopropyl-methyl-amino)-8,8-dimethyl-5,6,7,8-tetrahydro-naphthalene-2yl-ethynyl]-benzoic Acid] are 0.8 nM, 4.8 nM and 3 µM.
For `CC1(C)CC2(CC2)Oc2ccc(C#Cc3ccc(C(=O)O)c(F)c3)cc21` [Compound 44, 2-Fluoro-benzoic Acid, 4-[(3,4-dihydro-4,4-dimethylspiro[2H-1-benzopyran-2,1′-cyclopropane]-6-yl)ethynyl]-], on RARβ [1], the Kd worked out at 1.9 nM. Besides, the EC50 at RARβ [2] came to 1.7 nM. The IC50 at P450RAI-1 was determined as 0.27 µM.
Regarding `O=C(O)c1ccc(C#Cc2ccc(C3(NCc4ccccc4)CC3)cc2)cc1` [Compound 112, 4-[4-(1-Benzylamino-cyclopropyl)-phenylethynyl]-benzoic Acid], the Kd on RARβ [1] is 704 nM. In addition, the EC50 on RARβ [2] turned out to be 335 nM. Also, the IC50 on P450RAI-1 was greater than 10 µM.
Consider `CCCNC1(c2ccc(C#Cc3ccc(C(=O)O)cc3)cc2)CC1` [Compound 108, 4-[4-(1-Propylamino-cyclopropyl)-phenylethynyl]-benzoic Acid], for which the Kd at RARβ [1] was determined as 547 nM. For the same compound, the EC50 on RARβ [2] was found to be 283 nM. In addition, the IC50 at P450RAI-1 is greater than 10 µM.

For orientation: Kd means a measure of binding affinity in units of concentration. In general, EC50 refers to the concentration that produces a half-maximal response. By IC50 is commonly meant the midpoint of a concentration-inhibition curve.
